Common to all, as to experiment: cells
The subject of one assay is A549. The following applies: Homo sapiens, A549, 72 h.
In a further assay the test system is MCF7. The following applies: Homo sapiens, MCF7, 72 h.
A further assay concerns HepG2. The following applies: Homo sapiens, HepG2, 72 h.
The subject of the next assay is PC-3. The following applies: Homo sapiens, PC-3, 72 h.

pIC50: −log10 of the molar value. Some results are limits rather than exact numbers.

Description for A549: Cytotoxicity against human A549 cells assessed as reduction in cell viability after 72 hrs by MTT assay
Description for HepG2: Cytotoxicity against human HepG2 cells assessed as reduction in cell viability after 72 hrs by MTT assay
Description for MCF7: Cytotoxicity against human MCF7 cells assessed as reduction in cell viability after 72 hrs by MTT assay
Description for PC-3: Cytotoxicity against human PC3 cells assessed as reduction in cell viability after 72 hrs by MTT assay

Regarding `Cc1cc(=O)n(-c2cccc(C(F)(F)F)c2)nc1C(=O)Nc1ccc(Oc2ncnc3[nH]ccc23)cc1`, the negative logarithm of the IC50 (pIC50) with A549 is 5.12; with MCF7, 5.34; in the assay on HepG2, 5.02; in the assay on PC-3, 5.46.
On the same counts, the results for `Cn1ccc2c(Oc3ccc(NC(=O)c4nn(-c5ccc(Br)cc5F)ccc4=O)cc3F)ccnc21` are 4.57, 4.85, 4.62 and 4.79.
As to `Cn1ccc2c(Oc3ccc(NC(=O)c4nn(-c5ccc(Cl)c(F)c5)ccc4=O)cc3)ccnc21`, the pIC50 was below 4.22 with A549, 4.77 in the assay on MCF7, below 4.22 with HepG2 and 4.49 in the assay with PC-3.
On to `Cn1ccc2c(Oc3ccc(NC(=O)c4nn(-c5ccccc5)ccc4=O)cc3)ccnc21`, for which the pIC50 with A549 was 4.29; with MCF7, 4.35; in the assay with HepG2 it was 4.25; in the assay on PC-3, 4.24.
On the same counts, the results for `O=C(Nc1ccc(Oc2ccnc3[nH]ccc23)c(F)c1)c1nn(-c2ccc(Cl)c(F)c2)ccc1=O` are 4.99, 4.94, 5.02 and 4.87.
On to `Cn1ccc2c(Oc3ccc(NC(=O)c4nn(-c5ccc(Cl)cc5)ccc4=O)cc3)ccnc21`, for which the pIC50 with A549, with MCF7, with HepG2 and in the assay on PC-3 was below 4.22 in each case.
On to `Cc1cc(=O)n(-c2cccc(F)c2)nc1C(=O)Nc1ccc(Oc2ncnc3[nH]ccc23)cc1`, for which the pIC50 with A549 is 4.46; in the assay on MCF7, 5.01; with HepG2, 5.50; in the assay on PC-3 it was 4.84.
On to `Cc1cc(=O)n(-c2ccc(Br)cc2F)nc1C(=O)Nc1ccc(Oc2ncnc3c2ccn3C)c(F)c1`, for which the pIC50 in the assay on A549 is 4.84; with MCF7 it was below 4.22; with HepG2, below 4.22; with PC-3, 5.18.
For the compound `O=C(Nc1ccc(Oc2ccnc3[nH]ccc23)c(F)c1)c1nn(-c2ccc(Cl)c(C(F)(F)F)c2)ccc1=O`, the pIC50 in the assay with A549 is 4.87; in the assay on MCF7, 4.93; with HepG2, 4.93; in the assay with PC-3 it was 5.26.
As for `O=C(Nc1ccc(Oc2ccnc3[nH]ccc23)c(F)c1)c1nn(-c2ccc(Cl)cc2)ccc1=O`, the pIC50 in the assay on A549 was below 4.22; in the assay on MCF7, below 4.22; with HepG2, below 4.22; in the assay with PC-3 it was 4.37.
With `Cc1cc(=O)n(-c2ccccc2OC(F)(F)F)nc1C(=O)Nc1ccc(Oc2ncnc3[nH]ccc23)c(F)c1`, the pIC50 in the assay with A549 was 4.79; in the assay on MCF7, 4.93; in the assay on HepG2, below 4.22; with PC-3, below 4.22.
On to `COc1ccc(-n2ccc(=O)c(C(=O)Nc3ccc(Oc4ccnc5c4ccn5C)cc3)n2)cc1`, for which the pIC50 in the assay on A549, in the assay with MCF7, in the assay with HepG2 and in the assay on PC-3 was below 4.22 in each case.
In the case of `O=C(Nc1ccc(Oc2ccnc3[nH]ccc23)cc1)c1nn(-c2ccc(Br)cc2)ccc1=O`, the pIC50 in the assay on A549 was 5.20; in the assay with MCF7, 5.10; in the assay on HepG2, 5.37; in the assay on PC-3, 5.09.
Consider `Cc1cc(=O)n(-c2cccc(F)c2)nc1C(=O)Nc1ccc(Oc2ncnc3c2ccn3C)c(F)c1`, for which the pIC50 in the assay with A549 is below 4.22; in the assay on MCF7 it was below 4.22; with HepG2, below 4.22; in the assay with PC-3, 5.05.
As for `Cn1ccc2c(Oc3ccc(NC(=O)c4nn(-c5ccc(Cl)c(C(F)(F)F)c5)ccc4=O)cc3)ccnc21`, the pIC50 with A549 was 4.94; in the assay on MCF7 it was 4.82; in the assay on HepG2 it was 4.63; with PC-3 it was 4.99.
For `Cc1cc(=O)n(-c2ccccc2C(F)(F)F)nc1C(=O)Nc1ccc(Oc2ncnc3c2ccn3C)c(F)c1`, the pIC50 in the assay with A549 is 4.45; in the assay on MCF7 it was below 4.22; in the assay with HepG2, below 4.22; with PC-3, 4.59.
As for `COc1ccc(-n2ccc(=O)c(C(=O)Nc3ccc(Oc4ccnc5[nH]ccc45)cc3)n2)cc1`, the pIC50 in the assay on A549 is 4.27; with MCF7, 4.66; in the assay with HepG2, 4.29; in the assay with PC-3, below 4.22.
In the case of `Cc1cc(=O)n(-c2cccc(C(F)(F)F)c2)nc1C(=O)Nc1ccc(Oc2ncnc3[nH]ccc23)c(F)c1`, the pIC50 with A549 is 4.46; with MCF7, 4.93; in the assay with HepG2, 4.58; in the assay with PC-3, 4.81.
Taken in the same sequence, the figures for `O=C(Nc1ccc(Oc2ccnc3[nH]ccc23)cc1)c1nn(-c2ccc(Br)cc2F)ccc1=O` were 4.58, 4.75, 4.33 and 4.89.
Taken in the same sequence, the figures for `Cn1ccc2c(Oc3ccc(NC(=O)c4nn(-c5ccc(Cl)cc5)ccc4=O)cc3F)ccnc21` were below 4.22, below 4.22, below 4.22 and below 4.22.
`COc1ccc(-n2ccc(=O)c(C(=O)Nc3ccc(Oc4ccnc5c4ccn5C)c(F)c3)n2)cc1`: the pIC50 in the assay on A549, with MCF7, with HepG2 and in the assay with PC-3 was below 4.22 in each case.
Regarding `O=C(Nc1ccc(Oc2ccnc3[nH]ccc23)c(F)c1)c1nn(-c2ccc(Br)cc2)ccc1=O`, the pIC50 in the assay on A549 is below 4.22; with MCF7, 4.94; with HepG2, 4.17; in the assay on PC-3, 4.39.
Take `O=C(Nc1ccc(Oc2ccnc3[nH]ccc23)cc1)c1nn(-c2ccc(Cl)cc2)ccc1=O`: the pIC50 with A549 is 4.60; in the assay with MCF7, 4.98; with HepG2, 4.71; with PC-3, 4.49.
Taken in the same sequence, the figures for `Cn1ccc2c(Oc3ccc(NC(=O)c4nn(-c5ccc(Cl)c(C(F)(F)F)c5)ccc4=O)cc3F)ccnc21` were 4.75, 4.74, 4.87 and 4.68.
On the same counts, the results for `Cc1cc(=O)n(-c2cccc(F)c2)nc1C(=O)Nc1ccc(Oc2ncnc3[nH]ccc23)c(F)c1` are 4.50, 4.49, 4.64 and 5.18.
On the same counts, the results for `Cn1ccc2c(Oc3ccc(NC(=O)c4nn(-c5ccc(Br)cc5)ccc4=O)cc3)ccnc21` are 4.23, 4.79, 4.41 and 4.64.
Turning to `Cn1ccc2c(Oc3ccc(NC(=O)c4nn(-c5ccccc5)ccc4=O)cc3F)ccnc21`, the pIC50 with A549, with MCF7, in the assay on HepG2 and with PC-3 was below 4.22 throughout.
In the case of `Cn1ccc2c(Oc3ccc(NC(=O)c4nn(-c5ccc(Br)cc5F)ccc4=O)cc3)ccnc21`, the pIC50 in the assay with A549 is 4.45; in the assay on MCF7, 4.70; in the assay with HepG2, 4.51; in the assay with PC-3, 4.69.
As to `O=C(Nc1ccc(Oc2ccnc3[nH]ccc23)cc1)c1nn(-c2ccccc2)ccc1=O`, the pIC50 was 4.98 in the assay with A549, 4.81 in the assay on MCF7, 4.75 with HepG2 and 4.82 in the assay on PC-3.
For the compound `Cc1cc(=O)n(-c2ccccc2OC(F)(F)F)nc1C(=O)Nc1ccc(Oc2ncnc3c2ccn3C)c(F)c1`, the pIC50 in the assay on A549, in the assay on MCF7, in the assay with HepG2 and with PC-3 was below 4.22 in each case.
On to `Cn1ccc2c(Oc3ccc(NC(=O)c4nn(-c5ccc(Br)cc5)ccc4=O)cc3F)ccnc21`, for which the pIC50 in the assay on A549 is below 4.22; in the assay with MCF7 it was 4.47; with HepG2, below 4.22; with PC-3, below 4.22.
`O=C(Nc1ccc(Oc2ccnc3[nH]ccc23)c(F)c1)c1nn(-c2ccccc2)ccc1=O`: the pIC50 in the assay on A549 is 4.25; in the assay on MCF7, 4.46; in the assay on HepG2, 4.60; with PC-3, 4.41.
Taken in the same sequence, the figures for `Cc1cc(=O)n(-c2ccc(Br)cc2F)nc1C(=O)Nc1ccc(Oc2ncnc3c2ccn3C)cc1` were 4.33, 4.56, 4.47 and 4.73.
On the same counts, the results for `Cc1cc(=O)n(-c2ccccc2Cl)nc1C(=O)Nc1ccc(Oc2ncnc3c2ccn3C)c(F)c1` are below 4.22, below 4.22, below 4.22 and below 4.22.
Taken in the same sequence, the figures for `Cc1cc(=O)n(-c2cccc(F)c2)nc1C(=O)Nc1ccc(Oc2ncnc3c2ccn3C)cc1` were 4.63, 4.51, below 4.22 and below 4.22.
As to `Cc1cc(=O)n(-c2ccc(F)cc2)nc1C(=O)Nc1ccc(Oc2ncnc3[nH]ccc23)cc1`, the pIC50 was below 4.22 in the assay on A549, 5.32 with MCF7, below 4.22 with HepG2 and below 4.22 in the assay with PC-3.
Turning to `COc1ccc(-n2ccc(=O)c(C(=O)Nc3ccc(Oc4ccnc5[nH]ccc45)c(F)c3)n2)cc1`, the pIC50 with A549 was below 4.22; with MCF7, 4.26; in the assay with HepG2 it was below 4.22; in the assay on PC-3, 4.33.
On to `Cc1cc(=O)n(-c2ccccc2Cl)nc1C(=O)Nc1ccc(Oc2ncnc3c2ccn3C)cc1`, for which the pIC50 in the assay with A549 was 5.29; in the assay on MCF7, 5.38; in the assay with HepG2, 4.95; in the assay on PC-3 it was 4.78.
Turning to `Cc1ccc(-n2nc(C(=O)Nc3ccc(Oc4ncnc5c4ccn5C)c(F)c3)c(C)cc2=O)cc1`, the negative-log IC50 (pIC50) was below 4.22 in the assay on A549, below 4.22 with MCF7, below 4.22 with HepG2 and 4.30 in the assay with PC-3.
For the compound `O=C(Nc1ccc(Oc2ccnc3[nH]ccc23)c(F)c1)c1nn(-c2ccc(Br)cc2F)ccc1=O`, the pIC50 with A549 was 4.25; in the assay with MCF7, 4.63; in the assay on HepG2 it was 4.25; in the assay with PC-3 it was 5.06.
In the case of `Cc1ccc(-n2nc(C(=O)Nc3ccc(Oc4ncnc5c4ccn5C)cc3)c(C)cc2=O)cc1`, the pIC50 is below 4.22 in the assay on A549, 4.97 in the assay on MCF7, 4.47 in the assay on HepG2 and below 4.22 in the assay with PC-3.
